# From article PMC6651094, “A Ligand-Based Virtual Screening Method Using Direct Quantification of Generalization Ability” (Molecules, 2019)
# Target: T1, HIV-1 integrase multimerization (Human immunodeficiency virus type 1 group M subtype B, UniProt P12497)
# T1 construct: His-tagged and FLAG-tagged integrase (donated by professor Mamuka Kvaratskhelia); gift of Prof; Mamuka Kvaratskhelia (University of Colorado Denver Anschutz Medical Campus)
# Test: HTRF assay validating activators of HIV-1 integrase multimerization (in vitro binding assay)
# Assay type: biochemical
# Conditions: His-tagged and FLAG-tagged integrase 20 nM each; time-resolved FRET; 8-point 1:3 dilution from 53.7 μM, triplicate; active when EC50 < 5 µM
# Procedure: An assay was carried out as previously described to experimentally validate the compounds [45] identified by LBS as activators of HIV-1 integrase multimerization. Briefly, His-tagged and FLAG-tagged integrase (donated by professor Mamuka Kvaratskhelia at university of Colorado Denver Anschutz Medical Campus) were separately prepared with final concentration of 20 nM. An antibody mixture was prepared with 1.25 μg/mL of anti-6xHis-XL665 antibody (Cisbio) and 58 ng/mL of anti-FLAG-EuCryptate antibody (Cisbio), respectively, in Tris-HCl buffer. His-tagged and FLAG-tagged Integrase were mixed in 25 mM Tris-HCl (pH 7.4) buffer containing 150 mM NaCl, 2 mM MgCl2, 0.1% Nonidet P40, and 1 mg/mL BSA. 35 μL of integrase mixture was added to each well. Next, 270 nL of compounds (each in triplicate using 8-point 1:3 dilution series starting at a maximum nominal test concentration of 53.7 μM) were distributed to appropriate wells. Dimethyl sulfoxide was used as low-control, and BIB-II (donated by professor Mamuka Kvaratskhelia at university of Colorado Denver Anschutz Medical Campus) was used as high-control reference compound. After 3 h of incubation, 15 μL of antibody mixture was added to the plates. After incubation at room temperature for 2.5 h, the time-resolved fluorescence energy transfer signal was measured by the microplate reader (SpectraMax M5, Molecular Devices, LLC., San Jose, CA, USA) by exciting the plates (384 well, Corning) at 340 nm and monitoring well fluorescence at 618 nm and 671 nm with the microplate reader. All the test compounds were bought from ChemDiv (San Diego, CA, USA).
row,SMILES,EC50 [nM]
1,O=c1c(OC2OC(CO)C(O)C(O)C2O)c(-c2ccc(O)c(O)c2)oc2cc(O)cc(O)c12 (stereo not shown) [compound 5378597],1360
2,O=c1cc(-c2ccc(O)c(O)c2)oc2cc(OC3OC(CO)C(O)C(O)C3O)cc(O)c12 (stereo not shown) [compound 5291488],3620
3,COc1cccc(/C=N/Nc2nc3c(=O)[nH]c(N)nc3n2C2OC(CO)C(O)C2O)c1O (stereo not shown) [Pubchem CID 135427812],710
4,O=C(NNC1OC(CO)C(O)C(O)C1O)c1ccc(O)cc1 (stereo not shown) [compound 4137880],1260
5,COc1cccc(C=NNc2nc3c(=O)[nH]c(N)nc3n2C2OC(CO)C(O)C2O)c1O (stereo not shown) [compound 135427812],710
6,O=c1c2cc(O)c(O)cc2oc2cc(O)c(OC3OC(CO)C(O)C(O)C3O)c(O)c12 (stereo not shown) [compound 46397461],1260
7,O=C(NN=Cc1ccccc1F)c1cc(O)c(O)c(O)c1 [compound 3656702],4880
